Here are results for 15 compounds from patent publication US20170166598A1, “HETEROARYL COMPOUNDS FOR KINASE INHIBITION” (ARIAD PHARMACEUTICALS, INC., priority 2014, published 2017).

The structures appear in SMILES notation.

Common to all, as to type: cell-based
For assay [1], the target named is T1, human EGFR exon 20 insertion ASV (V769_D770insASV) (Homo sapiens, UniProt P00533, INS769ASV).
T1 construct: expressed in transfected cells; host or cells: Ba/F3 (murine pro-B) cells transduced with lentivirus from pLVX-IRES puro
T1 sequence (P00533 with tags, fused parts or gaps INS769ASV): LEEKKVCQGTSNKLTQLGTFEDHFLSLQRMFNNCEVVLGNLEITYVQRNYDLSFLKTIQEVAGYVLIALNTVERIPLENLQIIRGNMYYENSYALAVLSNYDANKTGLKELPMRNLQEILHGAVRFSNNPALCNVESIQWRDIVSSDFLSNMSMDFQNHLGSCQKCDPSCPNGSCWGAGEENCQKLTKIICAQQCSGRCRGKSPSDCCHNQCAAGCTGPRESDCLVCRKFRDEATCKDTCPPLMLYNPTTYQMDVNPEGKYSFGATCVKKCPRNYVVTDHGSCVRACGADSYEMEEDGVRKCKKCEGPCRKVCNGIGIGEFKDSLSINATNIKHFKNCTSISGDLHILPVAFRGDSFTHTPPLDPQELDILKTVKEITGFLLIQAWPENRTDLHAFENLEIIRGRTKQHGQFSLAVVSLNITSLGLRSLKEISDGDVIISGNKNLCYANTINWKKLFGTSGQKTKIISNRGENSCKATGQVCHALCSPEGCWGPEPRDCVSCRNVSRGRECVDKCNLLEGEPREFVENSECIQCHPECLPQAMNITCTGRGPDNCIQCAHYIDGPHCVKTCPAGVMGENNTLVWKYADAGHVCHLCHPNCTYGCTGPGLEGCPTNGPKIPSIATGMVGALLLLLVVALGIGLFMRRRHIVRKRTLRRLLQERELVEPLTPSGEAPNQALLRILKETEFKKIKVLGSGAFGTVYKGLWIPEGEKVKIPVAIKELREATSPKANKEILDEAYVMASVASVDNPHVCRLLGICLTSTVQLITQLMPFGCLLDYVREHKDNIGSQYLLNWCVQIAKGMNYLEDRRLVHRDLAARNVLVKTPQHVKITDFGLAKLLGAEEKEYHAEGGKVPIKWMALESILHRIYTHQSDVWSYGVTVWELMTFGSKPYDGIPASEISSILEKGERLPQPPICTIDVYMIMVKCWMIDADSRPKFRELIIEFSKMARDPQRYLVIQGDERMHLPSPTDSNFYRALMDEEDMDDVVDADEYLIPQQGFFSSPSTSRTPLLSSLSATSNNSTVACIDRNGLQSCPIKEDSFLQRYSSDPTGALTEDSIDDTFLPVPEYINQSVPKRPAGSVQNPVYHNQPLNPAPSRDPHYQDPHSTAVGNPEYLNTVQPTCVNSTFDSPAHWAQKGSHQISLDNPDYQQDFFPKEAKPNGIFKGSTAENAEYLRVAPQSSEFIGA
The assay can be described thus: Ba/F3-EGFR-Exon20-ASV cell anti-proliferative assay (CellTiter 96 MTS, 72 h). Conditions: Ba/F3-EGFR-Exon20-ASV cells. The essentials:
(§1)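 Viable-cell readout used absorbance at 490 nm of MTS-derived formazan, 2 h after reagent addition, following 72 h compound treatment at 37 °C, 5% CO2. Cells: puromycin-selected, IL-3-depleted Ba/F3 expressing EGFR exon 20 ASV or NPG; dosing 4-fold series from 10,000 nM.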

In assay [2] the target is T2, human EGFR exon 20 insertion NPG (H773_V774insNPG) (Homo sapiens, UniProt P00533, INS772GNP).
T2 construct: expressed in transfected cells; host or cells: Ba/F3 (murine pro-B) cells transduced with lentivirus from pLVX-IRES puro
T2 sequence (P00533 with tags, fused parts or gaps INS772GNP): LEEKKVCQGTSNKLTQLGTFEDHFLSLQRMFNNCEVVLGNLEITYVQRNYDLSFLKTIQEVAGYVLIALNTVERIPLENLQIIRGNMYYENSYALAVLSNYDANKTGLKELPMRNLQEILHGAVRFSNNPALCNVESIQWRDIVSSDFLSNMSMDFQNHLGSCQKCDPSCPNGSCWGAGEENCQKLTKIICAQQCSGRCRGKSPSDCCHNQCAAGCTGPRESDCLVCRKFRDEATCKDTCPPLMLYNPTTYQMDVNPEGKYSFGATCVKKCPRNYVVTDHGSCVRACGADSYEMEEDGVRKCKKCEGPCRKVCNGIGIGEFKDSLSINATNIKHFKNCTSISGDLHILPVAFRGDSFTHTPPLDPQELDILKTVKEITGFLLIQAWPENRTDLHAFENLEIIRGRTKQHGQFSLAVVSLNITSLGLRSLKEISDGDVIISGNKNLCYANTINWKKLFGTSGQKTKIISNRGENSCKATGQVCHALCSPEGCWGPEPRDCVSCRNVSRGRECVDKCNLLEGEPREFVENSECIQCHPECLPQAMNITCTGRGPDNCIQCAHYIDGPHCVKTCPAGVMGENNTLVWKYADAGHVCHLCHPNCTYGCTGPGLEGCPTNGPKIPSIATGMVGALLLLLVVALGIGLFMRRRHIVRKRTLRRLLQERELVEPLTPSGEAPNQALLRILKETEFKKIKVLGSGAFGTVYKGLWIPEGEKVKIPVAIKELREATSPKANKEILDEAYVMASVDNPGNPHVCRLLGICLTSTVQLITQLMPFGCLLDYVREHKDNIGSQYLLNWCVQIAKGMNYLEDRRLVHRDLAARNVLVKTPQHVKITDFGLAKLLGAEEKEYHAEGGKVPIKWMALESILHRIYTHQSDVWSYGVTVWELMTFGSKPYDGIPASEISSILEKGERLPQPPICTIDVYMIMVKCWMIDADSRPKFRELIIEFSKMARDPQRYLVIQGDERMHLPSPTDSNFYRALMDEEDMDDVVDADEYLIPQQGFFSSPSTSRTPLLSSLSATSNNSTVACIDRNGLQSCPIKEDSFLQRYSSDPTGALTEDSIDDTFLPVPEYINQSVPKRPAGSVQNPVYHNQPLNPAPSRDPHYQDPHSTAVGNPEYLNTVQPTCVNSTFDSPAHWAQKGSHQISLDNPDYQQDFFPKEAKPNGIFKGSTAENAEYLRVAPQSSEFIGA
In words: Ba/F3-EGFR-Exon20-NPG cell anti-proliferative assay (CellTiter 96 MTS, 72 h). The settings on record: Ba/F3-EGFR-Exon20-NPG cells. The gist of the method:
as §1

In assay [3] the target is T3, human EGFR E746-A750 deletion and T790M Mutation (Homo sapiens, UniProt P00533, DEL746-750/T790M).
T3 construct: expressed in transfected cells; host or cells: Ba/F3 (murine pro-B) cells transduced with lentivirus from pLVX-IRES puro
T3 sequence (P00533 with tags, fused parts or gaps DEL746-750/T790M): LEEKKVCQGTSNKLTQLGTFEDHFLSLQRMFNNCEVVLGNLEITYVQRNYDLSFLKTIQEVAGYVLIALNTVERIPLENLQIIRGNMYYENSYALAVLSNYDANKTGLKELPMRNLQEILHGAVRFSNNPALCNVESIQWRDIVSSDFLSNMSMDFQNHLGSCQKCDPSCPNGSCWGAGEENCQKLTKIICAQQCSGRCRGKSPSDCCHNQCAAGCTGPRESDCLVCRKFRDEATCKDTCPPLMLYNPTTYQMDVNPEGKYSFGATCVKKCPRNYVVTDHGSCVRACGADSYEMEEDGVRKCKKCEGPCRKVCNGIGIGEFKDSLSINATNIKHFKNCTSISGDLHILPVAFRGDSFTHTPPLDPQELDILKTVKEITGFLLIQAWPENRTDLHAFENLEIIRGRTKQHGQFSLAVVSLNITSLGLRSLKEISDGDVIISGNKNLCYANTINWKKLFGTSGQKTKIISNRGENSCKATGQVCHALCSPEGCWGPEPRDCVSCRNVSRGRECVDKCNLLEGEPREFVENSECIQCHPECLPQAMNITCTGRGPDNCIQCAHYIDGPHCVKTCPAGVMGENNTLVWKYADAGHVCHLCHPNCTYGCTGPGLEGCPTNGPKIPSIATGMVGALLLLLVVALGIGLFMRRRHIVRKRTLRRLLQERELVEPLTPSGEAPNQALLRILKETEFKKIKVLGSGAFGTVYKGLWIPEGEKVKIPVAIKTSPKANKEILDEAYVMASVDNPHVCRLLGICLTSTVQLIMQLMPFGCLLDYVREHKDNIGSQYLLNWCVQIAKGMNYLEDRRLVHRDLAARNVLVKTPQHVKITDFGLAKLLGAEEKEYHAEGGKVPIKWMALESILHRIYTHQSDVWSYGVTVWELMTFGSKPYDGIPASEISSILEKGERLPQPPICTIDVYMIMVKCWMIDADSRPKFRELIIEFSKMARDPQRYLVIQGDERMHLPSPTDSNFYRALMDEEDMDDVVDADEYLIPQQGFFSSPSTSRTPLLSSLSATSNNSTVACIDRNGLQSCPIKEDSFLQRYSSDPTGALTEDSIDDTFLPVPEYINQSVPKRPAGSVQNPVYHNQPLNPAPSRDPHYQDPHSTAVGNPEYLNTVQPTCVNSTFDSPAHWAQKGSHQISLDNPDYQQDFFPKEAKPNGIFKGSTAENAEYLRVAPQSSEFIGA
In words: Ba/F3-EGFR-Del/T790M cell anti-proliferative assay (CellTiter 96 MTS, 72 h). The settings on record: Ba/F3-EGFR-Del/T790M cells. The gist of the method: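 Compound exposure: 72 h, 37 °C, 4-fold series topping at 10,000 nM. Target cells are Ba/F3 transduced with EGFR exon 19 deletion plus T790M, selected by puromycin and IL-3 withdrawal. Viable cell number inferred from MTS metabolic conversion, A490 read 2 h after reagent addition.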

Assay [4] has as its target T4, Her2 exon 20 YVMA insertion (A775_G776ins YVMA) (Homo sapiens, UniProt P04626, INS775YVMA).
T4 construct: expressed in transfected cells; host or cells: Ba/F3 (murine pro-B) cells transduced with lentivirus from pLVX-IRES puro
In words: Ba/F3-Her2 Exon20 YVMA cell anti-proliferative assay (CellTiter 96 MTS, 72 h). Conditions: Ba/F3-Her2 Exon20 YVMA cells. The essentials: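 Anti-proliferation: compound series (top 10,000 nM, 4-fold steps) was applied to Ba/F3-Her2 Exon20 YVMA cells grown without IL-3 for 72 h. Viability was read colorimetrically (CellTiter 96 Aqueous One, A490, 2 h reagent incubation).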

The IC50 is the concentration at which inhibition is half-maximal. High values mean lower potency, low ones higher potency.

T4 sequence (P04626 with tags, fused parts or gaps INS775YVMA): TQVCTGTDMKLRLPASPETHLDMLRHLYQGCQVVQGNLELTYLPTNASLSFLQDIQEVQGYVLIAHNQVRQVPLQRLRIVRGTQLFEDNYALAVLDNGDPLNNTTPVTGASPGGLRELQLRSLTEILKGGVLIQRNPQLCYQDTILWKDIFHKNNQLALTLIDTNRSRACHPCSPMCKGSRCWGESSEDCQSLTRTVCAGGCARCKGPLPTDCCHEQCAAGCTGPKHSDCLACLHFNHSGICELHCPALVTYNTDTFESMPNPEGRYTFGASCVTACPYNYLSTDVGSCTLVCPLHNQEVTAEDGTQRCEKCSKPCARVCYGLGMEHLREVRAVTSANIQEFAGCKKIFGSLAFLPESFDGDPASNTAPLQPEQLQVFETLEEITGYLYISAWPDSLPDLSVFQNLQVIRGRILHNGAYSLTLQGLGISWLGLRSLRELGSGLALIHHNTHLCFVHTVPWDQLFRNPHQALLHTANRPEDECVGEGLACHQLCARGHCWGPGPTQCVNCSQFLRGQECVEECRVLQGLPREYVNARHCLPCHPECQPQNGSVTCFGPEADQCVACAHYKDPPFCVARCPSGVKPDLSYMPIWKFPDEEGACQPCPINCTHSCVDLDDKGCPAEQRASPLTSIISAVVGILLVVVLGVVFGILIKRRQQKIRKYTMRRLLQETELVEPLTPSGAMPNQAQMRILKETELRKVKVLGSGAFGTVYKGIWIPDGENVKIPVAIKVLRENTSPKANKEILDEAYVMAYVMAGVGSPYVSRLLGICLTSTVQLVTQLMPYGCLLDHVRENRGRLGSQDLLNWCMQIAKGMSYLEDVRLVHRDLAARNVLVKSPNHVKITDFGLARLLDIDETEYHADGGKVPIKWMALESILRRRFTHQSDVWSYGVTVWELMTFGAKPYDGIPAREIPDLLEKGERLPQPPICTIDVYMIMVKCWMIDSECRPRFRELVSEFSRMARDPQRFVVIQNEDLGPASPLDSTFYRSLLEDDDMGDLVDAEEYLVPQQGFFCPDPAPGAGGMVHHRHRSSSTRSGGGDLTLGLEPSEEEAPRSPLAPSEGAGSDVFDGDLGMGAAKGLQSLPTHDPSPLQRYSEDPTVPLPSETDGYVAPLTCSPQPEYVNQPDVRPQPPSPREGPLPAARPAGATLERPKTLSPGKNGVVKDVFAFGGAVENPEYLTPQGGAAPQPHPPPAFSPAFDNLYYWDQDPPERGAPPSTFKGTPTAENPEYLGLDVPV

As to `C=CC(=O)Nc1cc(Nc2ncc(N(C)S(C)(=O)=O)c(-c3cn4c5c(cccc35)CCC4)n2)c(OC)cc1N(C)CCN(C)C` [Example 59, N-(5-((4-(5,6-dihydro-4H-pyrrolo[3,2,1-ij]quinolin-1-yl)-5-(N-methylmethylsulfonamido)pyrimidin-2-yl)amino)-2-((2-(dimethylamino)ethyl)(methyl)amino)-4-methoxyphenyl)acrylamide], the IC50 in assay [1], in assay [2] and in assay [4] was > 1 µM each time. The “EGFR exon 19 deletion and exon 20 T790M mutation IC50” value in assay [3] is on record as “D (IC50 value for the indicated mutant greater than about 1 μM)”.
Consider `C=CC(=O)Nc1cc(Nc2ncc(N(C)CCO)c(-c3cn4c5c(cccc35)CCC4)n2)c(OC)cc1N(C)CCN(C)C` [Example 60, N-(5-((4-(5,6-dihydro-4H-pyrrolo[3,2,1-ij]quinolin-1-yl)-5-((2-hydroxyethyl)(methyl)amino)pyrimidin-2-yl)amino)-2-((2-(dimethylamino)ethyl)-(methyl)amino)-4-methoxyphenyl)acrylamide], for which the IC50 in assay [1] was < 0.1 µM; in assay [2], < 0.1 µM; in assay [4], 0.1 to 0.5 µM. Further, the “EGFR exon 19 deletion and exon 20 T790M mutation IC50” value in assay [3] was “A (IC50 value for the indicated mutant below about 100 nM)”.
As for `C=CC(=O)Nc1cc(Nc2nccc(-c3c(N4CCC(O)C4)n4c5c(cccc35)CCC4)n2)c(OC)cc1N(C)CCN(C)C` (stereo not drawn) [Example 61, N-(2-((2-(dimethylamino)ethyl)(methyl)amino)-5-((4-(2-(3-hydroxypyr4rolidin-1-yl)5,6-dihydro-4H-pyrrolo[3,2,1-ij]quinolin-1-yl)pyrimidin-2-yl)amino)-4-methoxyphenyl)acrylamide], the IC50 in assay [1], in assay [2] and in assay [4] was < 0.1 µM throughout. For the same compound, the “EGFR exon 19 deletion and exon 20 T790M mutation IC50” value in assay [3] is listed as “A (IC50 value for the indicated mutant below about 100 nM)”.
As to `C=CC(=O)Nc1cc(Nc2ncc(-c3ncco3)c(-c3cn4c5c(cccc35)CCC4)n2)c(OC)cc1N(C)CCN(C)C` [Example 62, N-(5-((4-(5,6-dihydro-4H-pyrrolo[3,2,1-ij]quinolin-1-yl)-5-(oxazol-2-yl)pyrimidin-2-yl)amino)-2-((2-(dimethylamino)ethyl)(methyl)amino)-4-methoxyphenyl)acrylamide], the IC50 in assay [1], in assay [2] and in assay [4] was < 0.1 µM throughout. Moreover, the “EGFR exon 19 deletion and exon 20 T790M mutation IC50” value in assay [3] was “A (IC50 value for the indicated mutant below about 100 nM)”.
Take `C=CC(=O)Nc1cc(Nc2nccc(-c3c(-c4ncco4)n4c5c(cccc35)CCC4)n2)c(OC)cc1N(C)CCN(C)C` [Example 63, N-(2-((2-(dimethylamino)ethyl)(methyl)amino)-4-methoxy-5-((4-(2-(oxazol-2-yl)-5,6-dihydro-4H-pyrrolo[3,2,1-ij]quinolin-1-yl)pyrimidin-2-yl)amino)phenyl)acrylamide]: the IC50 in assay [1] is 0.1 to 0.5 µM; in assay [2], < 0.1 µM; in assay [4], 0.5 to 1 µM. Moreover, the “EGFR exon 19 deletion and exon 20 T790M mutation IC50” value in assay [3] was “A (IC50 value for the indicated mutant below about 100 nM)”.
In the same order, the values of `C=CC(=O)Nc1cc(Nc2ncc(OC(F)F)c(-c3cn4c5c(cccc35)CCC4)n2)c(OC)cc1N(C)CCN(C)C` [Example 64, N-(5-((5-(difluoromethoxy)-4-(5,6-dihydro-4H-pyrrolo[3,2,1-ij]quinolin-1-yl)pyrimidin-2-yl)amino)-2-((2-(dimethylamino)ethyl)-(methyl)amino)-4-methoxyphenyl)acrylamide] are < 0.1 µM, < 0.1 µM, 0.1 to 0.5 µM and “A (IC50 value for the indicated mutant below about 100 nM)”.
As for `C=CC(=O)Nc1cc(Nc2ncc(C(=O)OC)c(-c3nn4c5c(cccc35)OCC4)n2)c(OC)cc1N(C)CCN(C)C` [Example 65, Methyl 2-((5-acrylamido-4-((2-(dimethylamino)ethyl)(methyl)amino)-2-methoxyphenyl)amino)-4-(2,3-dihydro-[1,4]oxazino[2,3,4-hi]indazol-6-yl)pyrimidine-5-carboxylate], the IC50 in assay [1], in assay [2] and in assay [4] was < 0.1 µM each time. In addition, in assay [3], the “EGFR exon 19 deletion and exon 20 T790M mutation IC50” value was “A (IC50 value for the indicated mutant below about 100 nM)”.
As to `C=CC(=O)Nc1cc(Nc2ncc(CC)c(-c3cn4c5c(cccc35)N(C)C(=O)C4)n2)c(OC)cc1N(C)CCN(C)C` [Example 66, N-(2-((2-(dimethylamino)ethyl)(methyl)amino)-5-((5-ethyl-4-(1-methyl-2-oxo-2,3-dihydro-1H-pyrrolo[1,2,3-de]quinoxalin-6-yl)pyrimidin-2-yl)amino)-4-methoxyphenyl)acrylamide], the IC50 in assay [1], in assay [2] and in assay [4] was < 0.1 µM in each case. Besides, the “EGFR exon 19 deletion and exon 20 T790M mutation IC50” value in assay [3] is given as “A (IC50 value for the indicated mutant below about 100 nM)”.
Turning to `C=CC(=O)Nc1cc(Nc2ncc(C(=O)NC)c(-c3nn4c5c(cccc35)OCC4)n2)c(OC)cc1N(C)CCN(C)C` [Example 67], the IC50 in assay [1], in assay [2] and in assay [4] was > 1 µM throughout. Besides, the “EGFR exon 19 deletion and exon 20 T790M mutation IC50” value in assay [3] is reported as “D (IC50 value for the indicated mutant greater than about 1 μM)”.
Take `C=CC(=O)Nc1cc(Nc2ncc(C(=O)OCC)c(-c3cn4c5c(cccc35)CCC4)n2)c(OC)cc1N(C)CCN(C)C` [Example 69, ethyl 2-((5-acrylamido-4-((2-(dimethylamino)ethyl)(methyl)amino)-2-methoxyphenyl)amino)-4-(5,6-dihydro-4H-pyrrolo[3,2,1-ij]quinolin-1-yl)pyrimidine-5-carboxylate]: the IC50 in assay [1], in assay [2] and in assay [4] was < 0.1 µM each time. For the same compound, the “EGFR exon 19 deletion and exon 20 T790M mutation IC50” value in assay [3] was “A (IC50 value for the indicated mutant below about 100 nM)”.
Consider `C=CC(=O)Nc1cc(Nc2ncc(CO)c(-c3cn4c5c(cccc35)CCC4)n2)c(OC)cc1N(C)CCN(C)C` [Example 70, N-(5-((4-(5,6-dihydro-4H-pyrrolo[3,2,1-ij]quinolin-1-yl)-5-(hydroxymethyl)pyrimidin-2-yl)amino)-2-((2-(dimethylamino)ethyl)-(methyl)amino)-4-methoxyphenyl)acrylamide], for which the results for the IC50 in assay [1], in assay [2] and in assay [4] were < 0.1 µM, < 0.1 µM and 0.1 to 0.5 µM, respectively. Further, in assay [3], the “EGFR exon 19 deletion and exon 20 T790M mutation IC50” value was “A (IC50 value for the indicated mutant below about 100 nM)”.
Turning to `C=CC(=O)Nc1cc(Nc2ncc(-c3nnco3)c(-c3cn4c5c(cccc35)CCC4)n2)c(OC)cc1N(C)CCN(C)C` [Example 71, N-(5-((4-(5,6-dihydro-4H-pyrrolo[3,2,1-ij]quinolin-1-yl)-5-(1,3,4-oxadiazol-2-yl)pyrimidin-2-yl)amino)-2-((2-(dimethylamino)ethyl)(methyl)amino)-4-methoxyphenyl)acrylamide], the IC50 in assay [1], in assay [2] and in assay [4] was < 0.1 µM in each case. Also, the “EGFR exon 19 deletion and exon 20 T790M mutation IC50” value in assay [3] is given as “A (IC50 value for the indicated mutant below about 100 nM)”.
In the case of `C=CC(=O)Nc1cc(Nc2nccc(-c3c(N4CCCC4=O)n4c5c(cccc35)CCC4)n2)c(OC)cc1N(C)CCN(C)C` [Example 72, N-(2-((2-(dimethylamino)ethyl)(methyl)amino)-4-methoxy-5-((4-(2-(2-oxopyrrolidin-1-yl)-5,6-dihydro-4H-pyrrolo[3,2,1-ij]quinolin-1-yl)pyrimidin-2-yl)amino)phenyl)acrylamide], the IC50 in assay [1] was < 0.1 µM; in assay [2], < 0.1 µM; in assay [4], 0.1 to 0.5 µM. Also, in assay [3], the “EGFR exon 19 deletion and exon 20 T790M mutation IC50” value is recorded as “A (IC50 value for the indicated mutant below about 100 nM)”.
With `C=CC(=O)Nc1cc(Nc2ncc(C(O)CC)c(-c3cn4c5c(cccc35)CCC4)n2)c(OC)cc1N(C)CCN(C)C` (stereo not drawn) [Example 73, N-(5-((4-(5,6-dihydro-4H-pyrrolo[3,2,1-ij]quinolin-1-yl)-5-(1-hydroxypropyl)pyrimidin-2-yl)amino)-2-((2-(dimethylamino)ethyl)-(methyl)amino)-4-methoxyphenyl)acrylamide], the results for the IC50 in assay [1], in assay [2] and in assay [4] were < 0.1 µM, < 0.1 µM and 0.1 to 0.5 µM, respectively. Also, the “EGFR exon 19 deletion and exon 20 T790M mutation IC50” value in assay [3] was “A (IC50 value for the indicated mutant below about 100 nM)”.
With `C=CC(=O)Nc1cc(Nc2nccc(-c3c(N4CC[C@@H](O)C4)n4c5c(cccc35)CCC4)n2)c(OC)cc1N(C)CCN(C)C` [Example 74, (R)-N-(2-((2-(dimethylamino)ethyl)-(methyl)amino)-5-((4-(2-(3-hydroxypyrrolidin-1-yl)-5,6-dihydro-4H-pyrrolo[3,2,1-ij]quinolin-1-yl)pyrimidin-2-yl)amino)-4-methoxyphenyl)-acrylamide], the results for the concentration for half-maximal inhibition (IC50) in assay [1], in assay [2] and in assay [4] were < 0.1 µM, < 0.1 µM and 0.1 to 0.5 µM, respectively. In assay [3], the “EGFR exon 19 deletion and exon 20 T790M mutation IC50” value is “A (IC50 value for the indicated mutant below about 100 nM)”.
